System: 958667-338-R-J2-PDC tumor spheroids viability
Assay: Anticancer human tumor 958667-338-R-J2-PDC patient-derived colon adenocarcinoma cell line growth inhibition [PI3K]
Settings: spheroids with HUVEC and MSC; for IC50: curve of first compound; for viability, T/C: stronger effect = lower value
Procedure, shortened: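 Tumor cells grown as multi-cell spheroids with HUVEC endothelial cells and MSC fibroblast-like stroma were treated with targeted agents combined with inavolisib, alpelisib, duvelisib or copanlisib. Doses fell in half-log steps from near clinical Cmax, else from 10 microM. Viability was measured.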
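Also: spheroids exposed to compounds for seven days before readout.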

Compound: CC1(C)CCC(Nc2ncc(C(F)(F)F)c(-c3c[nH]c4c(P(C)(C)=O)c(C#N)ccc34)n2)CN1 (centres undefined) + CC(Nc1ncnc2nc[nH]c12)c1cc2cccc(Cl)c2c(=O)n1-c1ccccc1
- IC50 (second compound 0.0316 µM): 4480 nM
- IC50 (second compound 0.1 µM): 2340 nM
- IC50 (second compound 0.316 µM): 4170 nM
- IC50 (second compound 1 µM): 3120 nM
- IC50 (second compound 3.16 µM): 3030 nM
- IC50 (second compound 10 µM): 3000 nM
- viability, T/C (second compound 0.0316 µM, first compound 0.0316 µM): 101%
- viability, T/C (second compound 0.0316 µM, first compound 0.1 µM): 94.6%
- viability, T/C (second compound 0.0316 µM, first compound 0.316 µM): 82.8%
- viability, T/C (second compound 0.0316 µM, first compound 1 µM): 69%
- viability, T/C (second compound 0.0316 µM, first compound 3.16 µM): 70.1%
- viability, T/C (second compound 0.0316 µM, first compound 10 µM): 25.9%
- viability, T/C (second compound 0.1 µM, first compound 0.0316 µM): 113%
- viability, T/C (second compound 0.1 µM, first compound 0.1 µM): 72.1%
- viability, T/C (second compound 0.1 µM, first compound 0.316 µM): 72%
- viability, T/C (second compound 0.1 µM, first compound 1 µM): 62.5%
- viability, T/C (second compound 0.1 µM, first compound 3.16 µM): 64.9%
- viability, T/C (second compound 0.1 µM, first compound 10 µM): 20%
- viability, T/C (second compound 0.316 µM, first compound 0.0316 µM): 98%
- viability, T/C (second compound 0.316 µM, first compound 0.1 µM): 106%
- viability, T/C (second compound 0.316 µM, first compound 0.316 µM): 80.4%
- viability, T/C (second compound 0.316 µM, first compound 1 µM): 74%
- viability, T/C (second compound 0.316 µM, first compound 3.16 µM): 63.9%
- viability, T/C (second compound 0.316 µM, first compound 10 µM): 24.6%
- viability, T/C (second compound 1 µM, first compound 0.0316 µM): 82.4%
- viability, T/C (second compound 1 µM, first compound 0.1 µM): 103%
- viability, T/C (second compound 1 µM, first compound 0.316 µM): 90.6%
- viability, T/C (second compound 1 µM, first compound 1 µM): 65.4%
- viability, T/C (second compound 1 µM, first compound 3.16 µM): 54.5%
- viability, T/C (second compound 1 µM, first compound 10 µM): 30.8%
- viability, T/C (second compound 3.16 µM, first compound 0.0316 µM): 117%
- viability, T/C (second compound 3.16 µM, first compound 0.1 µM): 96.1%
- viability, T/C (second compound 3.16 µM, first compound 0.316 µM): 86%
- viability, T/C (second compound 3.16 µM, first compound 1 µM): 64.1%
- viability, T/C (second compound 3.16 µM, first compound 3.16 µM): 60.8%
- viability, T/C (second compound 3.16 µM, first compound 10 µM): 21.8%
- viability, T/C (second compound 10 µM, first compound 0.0316 µM): 84.6%
- viability, T/C (second compound 10 µM, first compound 0.1 µM): 69.1%
- viability, T/C (second compound 10 µM, first compound 0.316 µM): 84.2%
- viability, T/C (second compound 10 µM, first compound 1 µM): 66.3%
- viability, T/C (second compound 10 µM, first compound 3.16 µM): 49.6%
- viability, T/C (second compound 10 µM, first compound 10 µM): 14.2%

Compound: Cn1cnc2c(F)c(Nc3ccc(Br)cc3Cl)c(C(=O)NOCCO)cc21 + COc1c(OCCCN2CCOCC2)ccc2c3n(c(=NC(=O)c4cnc(N)nc4)nc12)CCN3
- IC50 (second compound 0.00316 µM): 255 nM
- IC50 (second compound 0.01 µM): 134 nM
- IC50 (second compound 0.0316 µM): 38 nM
- IC50 (second compound 0.1 µM): 20.6 nM
- IC50 (second compound 0.316 µM): < 9.49 nM
- IC50 (second compound 1 µM): < 9.49 nM
- viability, T/C (second compound 0.00316 µM, first compound 0.00949 µM): 81.6%
- viability, T/C (second compound 0.00316 µM, first compound 0.03 µM): 81.9%
- viability, T/C (second compound 0.00316 µM, first compound 0.0949 µM): 75.2%
- viability, T/C (second compound 0.00316 µM, first compound 0.3 µM): 44.6%
- viability, T/C (second compound 0.00316 µM, first compound 0.949 µM): 26.7%
- viability, T/C (second compound 0.00316 µM, first compound 3 µM): 17.3%
- viability, T/C (second compound 0.01 µM, first compound 0.00949 µM): 87.8%
- viability, T/C (second compound 0.01 µM, first compound 0.03 µM): 65.3%
- viability, T/C (second compound 0.01 µM, first compound 0.0949 µM): 62.1%
- viability, T/C (second compound 0.01 µM, first compound 0.3 µM): 34.7%
- viability, T/C (second compound 0.01 µM, first compound 0.949 µM): 24.9%
- viability, T/C (second compound 0.01 µM, first compound 3 µM): 11.6%
- viability, T/C (second compound 0.0316 µM, first compound 0.00949 µM): 71.6%
- viability, T/C (second compound 0.0316 µM, first compound 0.03 µM): 46.2%
- viability, T/C (second compound 0.0316 µM, first compound 0.0949 µM): 40.4%
- viability, T/C (second compound 0.0316 µM, first compound 0.3 µM): 28%
- viability, T/C (second compound 0.0316 µM, first compound 0.949 µM): 17.4%
- viability, T/C (second compound 0.0316 µM, first compound 3 µM): 6.46%
- viability, T/C (second compound 0.1 µM, first compound 0.00949 µM): 67.8%
- viability, T/C (second compound 0.1 µM, first compound 0.03 µM): 40.9%
- viability, T/C (second compound 0.1 µM, first compound 0.0949 µM): 23.8%
- viability, T/C (second compound 0.1 µM, first compound 0.3 µM): 16.4%
- viability, T/C (second compound 0.1 µM, first compound 0.949 µM): 8.73%
- viability, T/C (second compound 0.1 µM, first compound 3 µM): 2.61%
- viability, T/C (second compound 0.316 µM, first compound 0.00949 µM): 34.6%
- viability, T/C (second compound 0.316 µM, first compound 0.03 µM): 25.5%
- viability, T/C (second compound 0.316 µM, first compound 0.0949 µM): 13.7%
- viability, T/C (second compound 0.316 µM, first compound 0.3 µM): 6.91%
- viability, T/C (second compound 0.316 µM, first compound 0.949 µM): 3.48%
- viability, T/C (second compound 0.316 µM, first compound 3 µM): 1.27%
- viability, T/C (second compound 1 µM, first compound 0.00949 µM): 13.5%
- viability, T/C (second compound 1 µM, first compound 0.03 µM): 10.8%
- viability, T/C (second compound 1 µM, first compound 0.0949 µM): 5.1%
- viability, T/C (second compound 1 µM, first compound 0.3 µM): 3.51%
- viability, T/C (second compound 1 µM, first compound 0.949 µM): 2.89%
- viability, T/C (second compound 1 µM, first compound 3 µM): 1%

From PubChem BioAssay AID1963963 (Molecular Pharmacology Branch, DTP, NCI, 2024)
